Literature values, collected in PubChem BioAssay AID1259409 (Chemical Carcinogenesis Research Information System (CCRIS), 2018).
Several values for one entry are separate records, joined by “and”; a condition that tells them apart may be missing. Equal entries are not always repeated.

Test system: rodent chemically induced tumor inhibition, incidence and multiplicity
Experiment: CCRIS tumor inhibitor studies
Conditions: Route [Inhibitor]: ORAL

Compound: NC(=O)c1cccnc1
- tumour outcome (control, treated, inhibition, significance) (Carcinogen: 3'-METHYL-4-DIMETHYLAMINOAZOBENZENE, 55-80-1, Dose [Inhibitor]: 0.29% IN DIET DAILY FOR 4 WK STARTING 4 WK AFTER THE START OF CARCINOGEN TREATMENT (STUDY DURATION: 20 WK), Species: RAT, Target Tissue: Type of Lesion: LIVER: TUMOR, Dose [Carcinogen]: 0.064% IN DIET DAILY FOR 4 WK THEN A 4 WK CARCINOGEN-FREE PERIOD FOLLOWED BY 0.048% FOR AN ADDITIONAL 4 WK, Promoter: NONE USED): 4/10 (40%), 10/11 (91%), -128%, not calculated
- tumour outcome (control, treated, inhibition, significance) (Carcinogen: 3'-METHYL-4-DIMETHYLAMINOAZOBENZENE, 55-80-1, Dose [Inhibitor]: 0.29% IN DIET DAILY FOR 4 WK STARTING AFTER COMPLETION OF CARCINOGEN TREATMENT (STUDY DURATION: 20 WK), Species: RAT, Target Tissue: Type of Lesion: LIVER: TUMOR, Dose [Carcinogen]: 0.064% IN DIET DAILY FOR 4 WK, Promoter: NONE USED): 7/15 (47%), 0/17 (0%), 100%, not calculated
- tumour outcome (control, treated, inhibition, significance) (Carcinogen: 3'-METHYL-4-DIMETHYLAMINOAZOBENZENE, 55-80-1, Dose [Inhibitor]: 0.29% IN DIET DAILY FOR 4 WK STARTING AFTER COMPLETION OF THE FIRST 4 WK OF CARCINOGEN TREATMENT (STUDY DURATION: 20 WK), Species: RAT, Target Tissue: Type of Lesion: LIVER: TUMOR, Dose [Carcinogen]: 0.064% IN DIET DAILY FOR 4 WK BEFORE AND ANOTHER 4 WK AFTER AGENT TREATMENT, Promoter: NONE USED): 7/15 (47%), 9/14 (64%), -36%, not calculated and 7/9 (78%), 6/9 (67%), 14%, not calculated
- tumour outcome (control, treated, inhibition, significance) (Carcinogen: 7,12-DIMETHYLBENZ[A]ANTHRACENE, 57-97-6, Dose [Inhibitor]: 0.2% IN DRINKING WATER DAILY STARTING 4 WK BEFORE CARCINOGEN TREATMENT AND CONTINUING FOR DURATION OF THE STUDY (STUDY D, Species: MOUSE, Strain/Sex: 101/MALE, FEMALE, Target Tissue: Type of Lesion: SKIN: PAPILLOMA, Dose [Carcinogen]: 225 UG IN 0.15 ML ACETONE ONCE, Promoter: CROTON OIL, 8001-28-3): 17/19 (89%), 17/19 (89%), 0%, not calculated
- tumour outcome (control, treated, inhibition, significance) (Carcinogen: N-NITROSOBIS(2-OXOPROPYL)AMINE, 60599-38-4, Dose [Inhibitor]: 0, 0.2% IN DRINKING WATER FOR 49 WK BEGINNING POST CARCINOGEN TREATMENT (STUDY DURATION: 52 WK), Species: HAMSTER, Strain/Sex: SYRIAN/FEMALE, Target Tissue: Type of Lesion: PANCREAS: ADENOCARCINOMA, Dose [Carcinogen]: 10 MG/KG 1/WK FOR 3 WK, Promoter: NONE USED): 18/30 (60%), 18/29 (62%), -3%, not significant
- tumour outcome (control, treated, inhibition, significance) (Carcinogen: N-NITROSOBIS(2-OXOPROPYL)AMINE, 60599-38-4, Dose [Inhibitor]: 0, 0.2% IN DRINKING WATER FOR 49 WK POST CARCINOGEN TREATMENT (STUDY DURATION: 52 WK), Species: HAMSTER, Strain/Sex: SYRIAN GOLDEN/FEMALE, Target Tissue: Type of Lesion: KIDNEY: NEPHROBLASTOMA, Dose [Carcinogen]: 10 MG/KG BW 1/WK FOR FIRST 3 WK OF STUDY DURATION, Promoter: NONE): 2/30 (7%), 0/29 (0%), 100%, not significant
- outcome (Carcinogen: N-NITROSOBIS(2-OXOPROPYL)AMINE, 60599-38-4, Dose [Inhibitor]: 0, 0.2% IN DRINKING WATER FOR 49 WK POST CARCINOGEN TREATMENT (STUDY DURATION: 52 WK), Species: HAMSTER, Strain/Sex: SYRIAN GOLDEN/FEMALE, Target Tissue: Type of Lesion: KIDNEY: RENAL CELL ADENOMA, Dose [Carcinogen]: 10 MG/KG BW 1/WK FOR FIRST 3 WK OF STUDY DURATION, Promoter: NONE): 0/30 (0%), 1/29 (3%),-%, not significant
- tumour outcome (control, treated, inhibition, significance) (Carcinogen: N-NITROSOBIS(2-OXOPROPYL)AMINE, 60599-38-4, Dose [Inhibitor]: 0, 0.2% IN DRINKING WATER FOR 49 WK POST CARCINOGEN TREATMENT (STUDY DURATION: 52 WK), Species: HAMSTER, Strain/Sex: SYRIAN GOLDEN/FEMALE, Target Tissue: Type of Lesion: KIDNEY: RENAL CELL CARCINOMA, Dose [Carcinogen]: 10 MG/KG BW 1/WK FOR FIRST 3 WK OF STUDY DURATION, Promoter: NONE): 1/30 (3%), 1/29 (3%), 0%, not significant
- tumour outcome (control, treated, inhibition, significance) (Carcinogen: N-NITROSOBIS(2-OXOPROPYL)AMINE, 60599-38-4, Dose [Inhibitor]: 0, 0.2% IN DRINKING WATER FOR 49 WK POST CARCINOGEN TREATMENT (STUDY DURATION: 52 WK), Species: HAMSTER, Strain/Sex: SYRIAN GOLDEN/FEMALE, Target Tissue: Type of Lesion: LIVER: CHOLANGIOCELLULAR ADENOMA, Dose [Carcinogen]: 10 MG/KG BW 1/WK FOR FIRST 3 WK OF STUDY DURATION, Promoter: NONE): 1/30 (3%), 2/29 (7%), -133%, not significant
- outcome (Carcinogen: N-NITROSOBIS(2-OXOPROPYL)AMINE, 60599-38-4, Dose [Inhibitor]: 0, 0.2% IN DRINKING WATER FOR 49 WK POST CARCINOGEN TREATMENT (STUDY DURATION: 52 WK), Species: HAMSTER, Strain/Sex: SYRIAN GOLDEN/FEMALE, Target Tissue: Type of Lesion: LIVER: CHOLANGIOCELLULAR CARCINOMA, Dose [Carcinogen]: 10 MG/KG BW 1/WK FOR FIRST 3 WK OF STUDY DURATION, Promoter: NONE): 0/30 (0%), 5/29 (17%), -%, p<0.05
- outcome (Carcinogen: N-NITROSOBIS(2-OXOPROPYL)AMINE, 60599-38-4, Dose [Inhibitor]: 0, 0.2% IN DRINKING WATER FOR 49 WK POST CARCINOGEN TREATMENT (STUDY DURATION: 52 WK), Species: HAMSTER, Strain/Sex: SYRIAN GOLDEN/FEMALE, Target Tissue: Type of Lesion: LIVER: CYSTADENOMA, Dose [Carcinogen]: 10 MG/KG BW 1/WK FOR FIRST 3 WK OF STUDY DURATION, Promoter: NONE): 0/30 (0%), 0/29 (0%), 0%, not significant
- tumour outcome (control, treated, inhibition, significance) (Carcinogen: N-NITROSOBIS(2-OXOPROPYL)AMINE, 60599-38-4, Dose [Inhibitor]: 0, 0.2% IN DRINKING WATER FOR 49 WK POST CARCINOGEN TREATMENT (STUDY DURATION: 52 WK), Species: HAMSTER, Strain/Sex: SYRIAN GOLDEN/FEMALE, Target Tissue: Type of Lesion: LIVER: HEPATOCELLULAR ADENOMA, Dose [Carcinogen]: 10 MG/KG BW 1/WK FOR FIRST 3 WK OF STUDY DURATION, Promoter: NONE): 2/30 (7%), 4/29 (14%), -100%, not significant
- tumour outcome (control, treated, inhibition, significance) (Carcinogen: N-NITROSOBIS(2-OXOPROPYL)AMINE, 60599-38-4, Dose [Inhibitor]: 0, 0.2% IN DRINKING WATER FOR 49 WK POST CARCINOGEN TREATMENT (STUDY DURATION: 52 WK), Species: HAMSTER, Strain/Sex: SYRIAN GOLDEN/FEMALE, Target Tissue: Type of Lesion: LIVER: HEPATOCELLULAR CARCINOMA, Dose [Carcinogen]: 10 MG/KG BW 1/WK FOR FIRST 3 WK OF STUDY DURATION, Promoter: NONE): 2/30 (7%), 1/29 (3%), 57%, not significant
- tumour outcome (control, treated, inhibition, significance) (Carcinogen: N-NITROSOBIS(2-OXOPROPYL)AMINE, 60599-38-4, Dose [Inhibitor]: 0, 0.2% IN DRINKING WATER FOR 49 WK POST CARCINOGEN TREATMENT (STUDY DURATION: 52 WK), Species: HAMSTER, Strain/Sex: SYRIAN GOLDEN/FEMALE, Target Tissue: Type of Lesion: LUNG: ADENOCARCINOMA, Dose [Carcinogen]: 10 MG/KG BW 1/WK FOR FIRST 3 WK OF STUDY DURATION, Promoter: NONE): 11/30 (37%), 8/29 (28%), 24%, not significant
- tumour outcome (control, treated, inhibition, significance) (Carcinogen: N-NITROSOBIS(2-OXOPROPYL)AMINE, 60599-38-4, Dose [Inhibitor]: 0, 0.2% IN DRINKING WATER FOR 49 WK POST CARCINOGEN TREATMENT (STUDY DURATION: 52 WK), Species: HAMSTER, Strain/Sex: SYRIAN GOLDEN/FEMALE, Target Tissue: Type of Lesion: LUNG: ADENOMA, Dose [Carcinogen]: 10 MG/KG BW 1/WK FOR FIRST 3 WK OF STUDY DURATION, Promoter: NONE): 15/30 (50%), 18/29 (62%), -24%, not significant
- tumour outcome (control, treated, inhibition, significance) (Carcinogen: N-NITROSOBIS(2-OXOPROPYL)AMINE, 60599-38-4, Dose [Inhibitor]: 0, 0.2% IN DRINKING WATER FOR 49 WK POST CARCINOGEN TREATMENT (STUDY DURATION: 52 WK), Species: HAMSTER, Strain/Sex: SYRIAN GOLDEN/FEMALE, Target Tissue: Type of Lesion: LUNG: SQUAMOUS CELL CARCINOMA, Dose [Carcinogen]: 10 MG/KG BW 1/WK FOR FIRST 3 WK OF STUDY DURATION, Promoter: NONE): 2/30 (7%), 0/29 (0%), 100%, not significant
- tumour outcome (control, treated, inhibition, significance) (Carcinogen: N-NITROSOBIS(2-OXOPROPYL)AMINE, 60599-38-4, Dose [Inhibitor]: 0, 0.2% IN DRINKING WATER FOR 49 WK POST CARCINOGEN TREATMENT (STUDY DURATION: 52 WK), Species: HAMSTER, Strain/Sex: SYRIAN GOLDEN/FEMALE, Target Tissue: Type of Lesion: PANCREAS (DUCTAL): ADENOCARCINOMA, Dose [Carcinogen]: 10 MG/KG BW 1/WK FOR FIRST 3 WK OF STUDY DURATION, Promoter: NONE): 18/30 (60%), 18/29 (62%), -3%, not significant
- tumour outcome (control, treated, inhibition, significance) (Carcinogen: N-NITROSOBIS(2-OXOPROPYL)AMINE, 60599-38-4, Dose [Inhibitor]: 0, 0.2% IN DRINKING WATER FOR 49 WK POST CARCINOGEN TREATMENT (STUDY DURATION: 52 WK), Species: HAMSTER, Strain/Sex: SYRIAN GOLDEN/FEMALE, Target Tissue: Type of Lesion: THYROID: ADENOMA, Dose [Carcinogen]: 10 MG/KG BW 1/WK FOR FIRST 3 WK OF STUDY DURATION, Promoter: NONE): 1/30 (3%), 0/29 (0%), 100%, not significant
